“Also recorded” adds a separate entry of the source.
Legend:
[1] = system: EMT-6; experiment: MTT cytotoxicity in 2D monolayer cell culture; type: cell-based; conditions: Mus musculus, EMT6
Protocol: (§1) Cytotoxicity in 2D Monolayer Cell Culture A mouse breast cancer cell line EMT-6 (ATCC, Manassas, Va.), two human breast cancer cell lines MDA-MB-231(ATCC) and MCF-7(ATCC), and one human glioma cancer cell line T98G(ATCC) were used in standard MTT assays (T. Mosmann, J Immunol Methods 65(1-2) (1983) 55-63) to test the cytotoxicity of PAHM polymers with different molecular weight and concentration after 24 and 48 h of treatment. D ox-HCl was also tested for comparison. All of the four cancer cell lines were incubated in corresponding cell culture media, EMT-6 media (DMEM high glucose, 10% FBS, 100 U/mL penicillin/streptomycin), T98G and MDA-MB-231 media (DMEM low glucose, 10% FBS, 100 U/mL penicillin/streptomycin), MCF-7 media (DMEM low glucose, 10% FBS, insulin, 100 U/mL penicillin/streptomycin), at 37° C., and a humidified atmosphere containing 5% CO2.
(§2) The MTT assay of PAHM polymers and Dox-HCl on EMT-6 cells exemplified the general experimental procedures. EMT-6 cells were seeded into 96-well plates at 5000 cells/well and cultured for 20 h in EMT-6 media at 5% CO2 and 37° C. Afterwards polymers of various molecular weight and concentrations were added to the cells and cultured for 24 h or 48 h. MTT in PBS (5 mg/mL, 20 μL) was then added to each well, reaching a final concentration of 0.5 mg/mL. After 4 h, unreacted MTT was removed by aspiration. The formazan crystals were dissolved in 150 μL of DMSO, and the absorbance was measured at 570 nm using a Bio-Tek Synergy HT plate reader. Cell viability was calculated by [absorbance of cells exposed to polymers]/[absorbance of cells cultured without polymers] in percentage. Cell images were captured before MTT was added using an Olympus IX70 […] microscope under polarized light.

[2] = system: T98G; experiment: MTT cytotoxicity in 2D monolayer cell culture; type: cell-based; conditions: Homo sapiens, 24 h treatment
Protocol: as §1, §2

[3] = system: AsPC-1 cells; experiment: PAHM+Dox cytotoxicity assay (MTT); type: cell-based, human; conditions: AsPC-1, PAHM and Dox used in combination
Protocol: AsPC-1 or EMT6 cells were plated at 5000 cells/well (in 100 μL phenol red free medium) in 96-well plates. After culturing overnight (˜20 h), the medium was removed, and 100 μL medium containing various concentrations of PAHM and/or Dox was added to the cells. AsPC-1 cells were exposed to 1-100 μg/mL PAHM, 1-100 μg/mL Dox, or combinations of PAHM and Dox at a 1:1 ratio. EMT6 cells were exposed to 1-100 μg/mL PAHM, 0.02-2 μg/mL Dox, or combinations of PAHM and Dox at a 50:1 ratio. After 24 h exposure, the PAHM and Dox solutions were removed and 100 μL phenol red free medium was added to the cells. Cell viability was measured using an MTT assay. To each well, 10 μL MTT solution (12 mM in PBS) was added. After 4 h, 85 μL was removed from each well and formazan was solubilized in 100 μL dimethyl sulfoxide (DMSO). Absorbance was measured at 540 nm using a plate reader (BioTek™ Cytation™ 3 Cell Imaging Multi-Mode Reader controlled by Gen5™ All-In-One Microplate Reader Software). Data was analyzed in Microsoft Excel and Combination Indices and Dose Reduction Indices were calculated using CompuSyn (ComboSyn, Inc.)

[4] = system: EMT-6 tumors; experiment: In vivo EMT-6 tumor model, anti-tumor effect; set-up: species or system Balb/C mice; conditions: 8 mice per group, charge ratios 1, 4, 16 (low, med, high heparin dose) or equivalent heparin alone
[5] = system: erythrocytes (RBC); experiment: Hemolysis; type: cell-based, mouse; conditions: complex of the anionic polymer with PAHM, data not shown
[6] = Particle size of complexes by dynamic light scattering; type: physicochemical; conditions: complex of the anionic polymer with PAHM
Protocol: Heparin (sodium salt) was mixed with PAHM in 20 mM HEPES buffer (pH 7.4) and incubated for 30 minutes at room temperature. The charge ratio of heparin and PAHM was adjusted based on the assumption that one repeating unit of PAHM (Mw 325.88) bears 1 mole of positive charge (approximately the same number of primary amino groups) and that one repeating unit of heparin (Mw 1471) carries 8 moles of negative charges (approximately the number of carboxylate and sulfate groups combined). The final PAHM concentration was kept constant as 0.1 mg/mL. To determine the average particle size of the nano-complexes, the heparin/PAHM mixtures were diluted 20 times to a final volume of 2 mL in HEPES buffer. The average hydrodynamic diameter (or particle size) in HEPES buffer (20 mM) at 25° C. were determined using a ZetaPlus Particle Analyzer (Brookhaven Instruments Corporation, Holtsville, N.Y.; 27 mW laser; 658 nm incident beam, 90° scattering angle). Nano-complexes with heparin/PAHM charge ratios ranging from 1 to 32 were prepared as described above and measured by DLS.

## COc1cccc2c1C(=O)c1c(O)c3c(c(O)c1C2=O)C[C@@](O)(C(=O)CO)C[C@@H]3O[C@H]1C[C@H](N)[C@H](O)[C@H](C)O1 [Dox, doxorubicin]
[1]; EMT-6, 24 h treatment
  IC50: 10 to 15 µg/mL
[1]; EMT-6, 48 h
  IC50: 5 µg/mL
[2]
  IC50: > 40 µg/mL
[3]
  Dose Reduction Index (DRI): much higher; also recorded: All but one DRI values are above 1

## heparin
[4]
  tumor growth (tumor volume and weight): modest but insignificant effect on tumor growth

## hyaluronic acid [HA]
[5]
  hemolytic activity of PAHM in complexed form: reduced, sometimes abolished
[6]
  particles formed with PAHM (size): nano to micro scale

— patent publication US11382929B2, “Compositions and methods to treat disease” (REGENTS OF THE UNIVERSITY OF MINNESOTA, priority 2019, dated 2022)
